Reference: patent US9126056B2, “Method of promoting hair growth” (ENERGENESIS BIOMEDICAL CO., LTD., priority 2010, dated 2015)

System: human dermal papilla cells
Assay: Human dermal papilla cell proliferation test
Format: cell-based
Details: 0.002% in culture media; cell count at 12-60 hour; FIG. 1
Description: The promotion of cell proliferation by adenine was evaluated using human dermal papilla cells, compared with adenosine, and minoxidil under the following conditions, the results are shown in FIG. 1.
Determination of the proliferation of human dermal papilla cells in the culture media containing adenine, adenosine, and minoxidil. Supplements: 0.002% of adenine, adenosine, minoxidil.
• (1) Prepare 0.002% adenine, adenosine, minoxidil containing testing media using the hair follicle dermal papilla cell media (cat. No. 611-500, Cell applications, Inc). • (2) Seed the isolated human dermal papilla cells in 96-well culture plate with a density of 5,000 cells per well. Add 0.1 mL prepared culture media into individual well. • (3) At 12, 24, 36, 48 and 60 hour after cell seeding, visually count the total cell number using hemacytometer. • (4) Evaluate the result.

Nc1ncnc2nc[nH]c12 [adenine]
proliferation of human dermal papilla cells (in words): promotes the proliferation
